What was measured:
human platelets = assay: Platelet activation: GMP140 expression measured with CD62 antibody by flow cytometry; format: cell-based; details: for Activation, PMA Activated, Day 3: storage Day 3, PMA 10-^7 M; for Activation, PMA Activated, Day 5: storage Day 5, PMA 10-^7 M
Excerpt: When platelets become activated, an alpha granule membrane glycoprotein called GMP140 becomes exposed on the platelet surface. Less than (5%) of fresh, normal unstimulated platelets express detectable GMP 140 levels by flow cytometry. See generally M.J. Metzelaar, Studies on the Expression of Activation-Markers on Human Platelets (Thesis 1991).
To measure GMP140, a small aliquot of platelet rich plasma is placed in HEPES buffer containing a GMP140-binding antibody or control mouse IgG. CD62 is a commercially available monoclonal antibody which binds to GMP 140 (available from Sanbio, Uden, the Netherlands; Caltag Labs, So. San Francisco, CA, and Becton Dickinson, Mountain View, CA). After a fifteen minute incubation, Goat Anti-Mouse IgG conjugated to FITC is added to the tube in saturating amounts. Finally, the cells are diluted in isotonic saline, fixed with paraformaldehyde and analyzed on a FACSCAN™ (Becton Dickinson, Mountain View, CA). The positive control is made by adding Phorbol Myristate Acetate (PMA) to the test system at a final concentration of 10-^7 M.
In this example, CD62 was employed to measure the impact, if any, of irradiation alone on platelet activation. The antibody was stored in small aliquots (0.01 mg/ml) at -40°C prior to use. A mouse IgG control (0.05 mg/ml) (Becton Dickinson, Mountain View, CA #9040) 5X concentrated was employed. At time of use, this was diluted 1:5 in HEPES buffer. The secondary antibody was goat Anti-Mouse IgG conjugated to FITC (TAGO, Burlingame, CA #3506). This was stored in small aliquots at -20°C. Phorbol Myristate Acetate (PMA) (Sigma, St. Louis, MO) was stored at -40°C. At time of use, this was dissolved in DMSO (working concentration was 1.62 X 10^-5 M).
16% Paraformaldehyde (PFA) (Sigma, St. Louis, MO) was prepared by adding 16 grams paraformaldehyde to 100 ml de-ionized water. This was heated to 70°C, whereupon 3 M NaOH was added dropwise until the solution was clear. The solution was cooled and the pH was adjusted to 7.4 with 1 N HCl. This was filtered and stored. A commercially available isotonic buffer was used: Hematall Isotonic Diluent (Fisher # CS 606-20).
Following irradiation, the platelets were stored for 5 days. At specific time points, aliquots were taken and processed.
Processing involved adding an aliquot (e.g. 5 microliters) of platelet concentrate to each microcentrifuge tube containing the antibody and appropriate reagents and this was mixed very gently by vortex. The samples were incubated for 15 minutes at room temperature.
The Goat anti-Mouse IgG-FITC (diluted 1:10 in HEPES buffer) was added (5 microliters) to each tube and the solution was mixed by gentle vortex. The samples were incubated for an additional 15 minutes at room temperature.
Isoton II was added (1 ml) to each tube and mixed gently with a polypropylene disposable pipette. 8% PFA in HEPES (150 microliters) was added to each diluted sample to final 1%. The platelets were analyzed on the FACSCAN™.
Shorter Irradiation Times.

viruses = details: 300 ug/ml of 8-MOP, one hour or more of irradiation with ultraviolet light; cited from earlier work
[1] = non activated 8-MOP; cited from earlier work
[2] = Photochemical breakdown measured by reverse phase HPLC; format: physicochemical; details: Figure 7
[3] = test system: single stranded 5S ribosomal RNA; details: irradiation at 4°C compared to 20°C; cited from earlier work

## COc1c2occc2cc2ccc(=O)oc12 [8-MOP, 8-methoxypsoralen]
Human platelets; 10 ug/ml 8-MOP, five minutes UVA, 25°C, stored for 5 days
  damage to platelets after irradiation in the presence of psoralen: without damage to the cells
viruses
  inactivation of viruses: can effectively inactivate viruses
[1]
  mutagenicity: not mutagenic

## Cc1oc2c(C)c3oc(=O)cc(C)c3cc2c1CN [AMT, 4'-aminomethyl-4,5',8-trimethylpsoralen]
[2]
  degradation (photochemical breakdown): degrades more quickly than 8-MOP

## Cc1oc2c(C)c3oc(=O)cc(C)c3cc2c1CO [HMT, 4'-hydroxymethyl-4,5',8-trimethylpsoralen]
[3]
  enhancement of covalent addition of HMT to 5S rRNA: two fold

## CCCCCCCCCCCCCC(=O)O[C@@H]1[C@@H](C)[C@@]2(O)[C@@H](C=C(CO)C[C@]3(O)C(=O)C(C)=C[C@@H]23)[C@@H]2C(C)(C)[C@]12OC(C)=O [PMA, Phorbol Myristate Acetate]
Human platelets; Control (no irradiation)
  Activation, PMA Activated, Day 3: 85%
  Activation, PMA Activated, Day 5: 89%
Human platelets; UV 5'
  Activation, PMA Activated, Day 3: 87%
  Activation, PMA Activated, Day 5: 86%
Human platelets; UV 10'
  Activation, PMA Activated, Day 3: 84%
  Activation, PMA Activated, Day 5: 79%

— patent EP0727938B1, “DEVICE AND METHOD FOR PHOTOACTIVATION” (Cerus Corporation, priority 1993, dated 1995)
